In patent US20230131899A1, “INHIBITORS OF MICROBIALLY INDUCED AMYLOID” (Axial Therapeutics, Inc., priority 2020, published 2023) one finds inhibition data, which are given here for 21 compounds.

What is called inhibition is the share of the control response that was lost under treatment.

Molecules are shown by their SMILES. Read-outs that look alike come from different tables or passages of the source.

This test concerns the target T1, human α-synuclein (Homo sapiens, UniProt P37840).
T1 construct: the full-length gene for untagged human α-synuclein was inserted; made in house; host or cells: E. coli BL21(DE3), plasmid derived from pT7 or pET11a
In words: Cell-free Thioflavin T assay of α-synuclein aggregation (αSyn ThT Assay). It counts as biochemical. The following applies: αSyn 50 μM. Put shortly: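 Untagged full-length human α-synuclein from E. coli, 50 μM, with 20-40 μM ThT, 1% DMSO, compound at 20-100 μM and a glass bead, 37° C. with shaking. Fluorescence (ex 438/em 495 nm) read hourly to 73 h. Compound-only background subtracted and values normalised to vehicle at 36-72 h or final timepoint, giving % inhibition.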

Setting [1] is: mean % inhibition of αSyn aggregation relative to DMSO control, compounds at 100 μM, read-out: αSyn ThT Assay % Inhibition.
[2] abbreviates: compounds at 100 μM, class symbol, read-out: αSyn ThT Assay % Inhibition (activity range).
The mark [3] stands for this setting: class symbol, compounds 100 μM, read-out: αSyn ThT Assay % inhibition, activity range.
Setting [4] is: mean percent inhibition relative to DMSO control, compounds 100 μM, read-out: αSyn ThT Assay % inhibition.

As to `Cn1c(=O)c2c(nc(CCCCCCN3CC(C(=O)O)n4c(c(-c5cccc(C(F)(F)F)c5)c(Cc5cccc6ccccc56)cc4=O)S3(=O)=O)n2C)n(C)c1=O` (stereo not drawn) [Compound 046, 8-(naphthalen-1-ylmethyl)-6-oxo-9-(3-(trifluoromethyl)phenyl)-2-(6-(1,3,7-trimethyl-2,6-dioxo-2,3,6,7-tetrahydro-1H-purin-8-yl)hexyl)-3,4-dihydro-2H,6H-pyrido[1,2-e][1,2,5]thiadiazine-4-carboxylic acid 1,1-dioxide], the inhibition at 100 µM under setting [1] stood at 28% and the inhibition at 100 µM under setting [2] was in the range of 11 to 30%.

For the compound `Cn1c(=O)c2c(nc(CCCCCCCN3CC(C(=O)O)n4c(c(-c5cccc(C(F)(F)F)c5)c(Cc5cccc6ccccc56)cc4=O)S3(=O)=O)n2C)n(C)c1=O` (stereo not drawn) [Compound 047, 8-(naphthalen-1-ylmethyl)-6-oxo-9-(3-(trifluoromethyl)phenyl)-2-(7-(1,3,7-trimethyl-2,6-dioxo-2,3,6,7-tetrahydro-1H-purin-8-yl)heptyl)-3,4-dihydro-2H,6H-pyrido[1,2-e][1,2,5]thiadiazine-4-carboxylic acid 1,1-dioxide], the inhibition at 100 µM is, setting by setting: under setting [1], 21%; under setting [2], 11 to 30%.

With `O=C(O)c1c(-c2ccccc2)sc2c(-c3cccc(C(F)(F)F)c3)c(Cc3cccc4ccccc34)cc(=O)n12` [Compound 051, 7-(naphthalen-1-ylmethyl)-5-oxo-2-phenyl-8-(3-(trifluoromethyl)phenyl)-5H-thiazolo[3,2-a]pyridine-3-carboxylic acid], the inhibition at 100 µM is 47% under setting [1] and 31 to 60% under setting [2].

Consider `O=C(O)C1n2c(c(-c3cccc(C(F)(F)F)c3)c(Cc3cccc4ccccc34)nc2=O)SC12CCCC2` (stereo not drawn) [Compound 053, 7′-(naphthalen-1-ylmethyl)-5′-oxo-8′-(3-(trifluoromethyl)phenyl)-3′H,5′H-spiro[cyclopentane-1,2′-thiazolo[3,2-c]pyrimidine]-3′-carboxylic acid], for which the inhibition at 100 µM reads like this: under setting [1], 65%; under setting [2], above 60%.

Consider `O=C(O)C1CSc2c(-c3cccc(C(F)(F)F)c3)c(Cc3cccc4ccccc34)cc(=S)n21` (stereo not drawn) [Compound 054, 7-(naphthalen-1-ylmethyl)-5-thioxo-8-(3-(trifluoromethyl)phenyl)-2,3-dihydro-5H-thiazolo[3,2-a]pyridine-3-carboxylic acid], for which the inhibition at 100 µM under setting [1] worked out at 39% and the inhibition at 100 µM under setting [2] was in the range of 31 to 60%.

For `O=C(O)C1CN(CCCO)S(=O)(=O)c2c(-c3cccc(C(F)(F)F)c3)c(Cc3cccc4ccccc34)cc(=O)n21` (stereo not drawn) [Compound 056, 2-(3-hydroxypropyl)-8-(naphthalen-1-ylmethyl)-6-oxo-9-(3-(trifluoromethyl)phenyl)-3,4-dihydro-2H,6H-pyrido[1,2-e][1,2,5]thiadiazine-4-carboxylic acid 1,1-dioxide], the inhibition at 100 µM was 59% under setting [1] and 31 to 60% under setting [2].

`O=C(O)C1CSc2c(-c3cccc(C(F)(F)F)c3)c(Cc3cccc4ccccc34)c(CO)c(=O)n21` (stereo not drawn) [Compound 057, 6-(hydroxymethyl)-7-(naphthalen-1-ylmethyl)-5-oxo-8-(3-(trifluoromethyl)phenyl)-2,3-dihydro-5H-thiazolo[3,2-a]pyridine-3-carboxylic acid]: the inhibition at 100 µM under setting [1] came out at 54% and the inhibition at 100 µM under setting [2] was in the range of 31 to 60%.

For the compound `CC1(C)Sc2c(-c3cccc(C(F)(F)F)c3)c(Cc3cccc4ccccc34)nc(=O)n2C1C(=O)O` (stereo not drawn) [Compound 059, 2,2-dimethyl-7-(naphthalen-1-ylmethyl)-5-oxo-8-(3-(trifluoromethyl)phenyl)-2,3-dihydro-5H-thiazolo[3,2-c]pyrimidine-3-carboxylic acid], the inhibition at 100 µM reads like this: under setting [1], 36%; under setting [2], 31 to 60%.

Consider `O=C(O)c1c(CCc2ccccc2)sc2c(-c3cccc(C(F)(F)F)c3)c(Cc3cccc4ccccc34)cc(=O)n12` [Compound 062, 7-(naphthalen-1-ylmethyl)-5-oxo-2-phenethyl-8-(3-(trifluoromethyl)phenyl)-5H-thiazolo[3,2-a]pyridine-3-carboxylic acid], for which the inhibition at 100 µM is, setting by setting: under setting [1], 87%; under setting [2], above 60%.

As for `O=C(O)C1COc2c(-c3cccc(C(F)(F)F)c3)c(Cc3cccc4ccccc34)cc(=O)n21` (stereo not drawn) [Compound 064, 7-(naphthalen-1-ylmethyl)-5-oxo-8-(3-(trifluoromethyl)phenyl)-2,3-dihydro-5H-oxazolo[3,2-a]pyridine-3-carboxylic acid], the inhibition at 100 µM is 37% under setting [1] and 31 to 60% under setting [2].

On to `O=C(O)C1CN(C[C@H](O)CO)S(=O)(=O)c2c(-c3cccc(C(F)(F)F)c3)c(Cc3cccc4ccccc34)cc(=O)n21` (stereo partly drawn) [Compound 065a, 2-((S)-2,3-dihydroxypropyl)-8-(naphthalen-1-ylmethyl)-6-oxo-9-(3-(trifluoromethyl)phenyl)-3,4-dihydro-2H,6H-pyrido[1,2-e][1,2,5]thiadiazine-4-carboxylic acid 1,1-dioxide], for which the inhibition at 100 µM is, setting by setting: under setting [1], 32%; under setting [2], 31 to 60%.

Turning to `Cc1c(Cc2cccc3ccccc23)c(-c2cccc(C(F)(F)F)c2)c2n(c1=O)C(C(=O)O)CN(C)S2(=O)=O` (stereo not drawn) [Compound 068, 2,7-dimethyl-8-(naphthalen-1-ylmethyl)-6-oxo-9-(3-(trifluoromethyl)phenyl)-3,4-dihydro-2H,6H-pyrido[1,2-e][1,2,5]thiadiazine-4-carboxylic acid 1,1-dioxide], the inhibition at 100 µM was 74% under setting [1] and above 60% under setting [2].

In the case of `CN1CC(C(=O)O)n2c(c(-c3cccc(C(F)(F)F)c3)c(Cc3cccc4ccccc34)c(NC3CCCC3)c2=O)S1(=O)=O` (stereo not drawn) [Compound 070, 7-(cyclopentylamino)-2-methyl-8-(naphthalen-1-ylmethyl)-6-oxo-9-(3-(trifluoromethyl)phenyl)-3,4-dihydro-2H,6H-pyrido[1,2-e][1,2,5]thiadiazine-4-carboxylic acid 1,1-dioxide], the inhibition at 100 µM is 53% under setting [1] and 31 to 60% under setting [2].

As for `CN1CC(C(=O)O)n2c(c(-c3cccc(C(F)(F)F)c3)c(Cc3cccc4ccccc34)c(NCc3ccccc3)c2=O)S1(=O)=O` (stereo not drawn) [Compound 071], the inhibition at 100 µM under setting [1] is 38% and the inhibition at 100 µM under setting [2] was 31 to 60%.

For `O=C(O)C1CSc2c(-c3cccc(C(F)(F)F)c3)c(C(F)(F)c3cccc4ccccc34)cc(=O)n21` (stereo not drawn) [Compound 073, 7-(difluoro(naphthalen-1-yl)methyl)-5-oxo-8-(3-(trifluoromethyl)phenyl)-2,3-dihydro-5H-thiazolo[3,2-a]pyridine-3-carboxylic acid], the inhibition at 100 µM was 76% under setting [1] and above 60% under setting [2].

Consider `CCCN1CC(C(=O)O)n2c(c(-c3cccc(C(F)(F)F)c3)c(C(F)(F)c3cccc4ccccc34)cc2=O)S1(=O)=O` (stereo not drawn) [Compound 138, 8-(difluoro(naphthalen-1-yl)methyl)-6-oxo-2-propyl-9-(3-(trifluoromethyl)phenyl)-3,4-dihydro-2H,6H-pyrido[1,2-e][1,2,5]thiadiazine-4-carboxylic acid 1,1-dioxide], for which the inhibition at 100 µM by setting is: under setting [3], above 60%; under setting [4], 74%.

As for `CCc1c(Cc2cccc3ccccc23)c(-c2cccc(C(F)(F)F)c2)c2n(c1=O)C(C(=O)O)CN2Cc1ccccc1` (stereo not drawn) [Compound 140, 1-benzyl-6-ethyl-7-(naphthalen-1-ylmethyl)-5-oxo-8-(3-(trifluoromethyl)phenyl)-1,2,3,5-tetrahydroimidazo[1,2-a]pyridine-3-carboxylic acid], the inhibition at 100 µM is 31 to 60% under setting [3] and 48% under setting [4].

In the case of `CCCN1CC(C(=O)O)n2c(c(-c3cccc(C(F)(F)F)c3)c(Cc3cccc4ccccc34)c(O)c2=O)S1(=O)=O` (stereo not drawn) [Compound 141, 7-hydroxy-8-(naphthalen-1-ylmethyl)-6-oxo-2-propyl-9-(3-(trifluoromethyl)phenyl)-3,4-dihydro-2H,6H-pyrido[1,2-e][1,2,5]thiadiazine-4-carboxylic acid 1,1-dioxide], the inhibition at 100 µM is, setting by setting: under setting [3], above 60%; under setting [4], 79%.

In the case of `CCCN1CC(C(=O)O)n2c(c(-c3cccc(C(F)(F)F)c3)c(Cc3cccc4ccccc34)c(Cl)c2=O)S1(=O)=O` (stereo not drawn) [Compound 142, 7-chloro-8-(naphthalen-1-ylmethyl)-6-oxo-2-propyl-9-(3-(trifluoromethyl)phenyl)-3,4-dihydro-2H,6H-pyrido[1,2-e][1,2,5]thiadiazine-4-carboxylic acid 1,1-dioxide], the inhibition at 100 µM reads like this: under setting [3], 31 to 60%; under setting [4], 40%.

Regarding `CCCN1CC(C(=O)O)n2c(c(-c3cccc(C(F)(F)F)c3)c(Cc3cccc4ccccc34)c(OCC)c2=O)S1(=O)=O` (stereo not drawn) [Compound 143, 7-ethoxy-8-(naphthalen-1-ylmethyl)-6-oxo-2-propyl-9-(3-(trifluoromethyl)phenyl)-3,4-dihydro-2H,6H-pyrido[1,2-e][1,2,5]thiadiazine-4-carboxylic acid 1,1-dioxide], the inhibition at 100 µM is above 60% under setting [3] and 96% under setting [4].

For `CCCN1CC(C(=O)O)n2c(c(-c3cccc(C(F)(F)F)c3)c(Cc3cccc4ccccc34)c(NC(=O)C(C)C)c2=O)S1(=O)=O` (stereo not drawn) [Compound 152, 7-isobutyramido-8-(naphthalen-1-ylmethyl)-6-oxo-2-propyl-9-(3-(trifluoromethyl)phenyl)-3,4-dihydro-2H,6H-pyrido[1,2-e][1,2,5]thiadiazine-4-carboxylic acid 1,1-dioxide], the inhibition at 100 µM by setting is: under setting [3], 31 to 60%; under setting [4], 54%.
